From patent publication US10966426B2, “Herbicidal compositions comprising phenylpyrimidines” (BASF SE, priority 2016, dated 2021)
Several values for one entry are separate records, joined by “and”; a condition that tells them apart may be missing. Identical values can stand only once.

What was measured:
Assay type in all cases: in vivo
Setaria viridis = experiment: greenhouse pre-emergence treatment, SETVI; conditions: solo, SETVI
Outline: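 Seeds were sown per species in pots of loamy sand with about 3.0% humus, sprayed with the aqueous spray liquor directly after sowing, watered and hooded until rooted, then kept at 10-25° C. or 20-35° C. for 2 to 4 weeks. Damage was scored 0 (none) to 100 (no emergence/complete destruction).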

Galium aparine = experiment: greenhouse post-emergence treatment, GALAP; conditions: GALAP
Outline: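 Each species was grown separately and treated once it reached 3 to 15 cm, using actives suspended or emulsified in water. Plants were kept at 10-25° C. or 20-35° C., depending on species. Damage is a 0–100 rating taken during 2 to 4 weeks.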

Lolium multiflorum = experiment: greenhouse post-emergence treatment, LOLMU; conditions: LOLMU
Outline: (§1)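 Scoring used a 0 to 100 scale, with 100 denoting no emergence or full destruction of at least the above-ground parts, recorded within a 2 to 4 week test period. Test plants grew in loamy sand containing about 3.0% humus at 10-25° C. or 20-35° C., after direct sowing or transplanting, and received water-based treatments post-emergence.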

Digitaria sanguinalis = experiment: greenhouse post-emergence treatment, DIGSA; conditions: DIGSA
Outline: as §1

[1] = Table X8, 20 DAT, solo Ex. 5 250 gai/ha
[2] = Table X12, 20 DAT, solo Ex. 5 125 gai/ha
[3] = solo Ex. 5 500 gai/ha, 20 DAT, 2nd series of rows

SMILES: O=C(O)c1nc(C2CC2)ncc1-c1ccccc1Cl [Ex. 5]
- % activity (Setaria viridis; 125 gai/ha, 20 DAT): 45%
- % activity (Setaria viridis; 125 gai/ha, 21 DAT): 60%
- % activity (Setaria viridis; 250 gai/ha, 21 DAT): 65%
- % activity, solo application (Galium aparine; 125 gai/ha, 20 DAT, Table X4): 0%
- % activity, solo application (Galium aparine; 125 gai/ha, 20 DAT, Table X5): 0%
- % activity, solo application (Galium aparine; 250 gai/ha, 20 DAT, Table X4): 30%
- % activity, solo application (Galium aparine; 250 gai/ha, 20 DAT, Table X5): 0%
- % activity (Galium aparine; Ex. 5 solo, 31.25 gai/ha, 21 DAT): 10%
- % activity (Galium aparine; Ex. 5 solo, 62.5 gai/ha, 20 DAT): 0%
- % activity (Galium aparine; Ex. 5 solo, 250 gai/ha, 21 DAT): 25%
- % activity (Galium aparine; solo Ex. 5 62.5 gai/ha, 20 DAT): 0%
- % activity (Galium aparine; solo Ex. 5 125 gai/ha, 20 DAT): 0%
- % activity (Galium aparine; solo Ex. 5 125 gai/ha, 21 DAT): 0%
- % activity (Galium aparine; [1]): 20%
- % activity (Galium aparine; Table X12, 20 DAT, solo Ex. 5 62.5 gai/ha): 0%
- % activity (Galium aparine; [2]): 0%
- % activity (Galium aparine; solo, 62.5 gai/ha, 20 DAT): 0%
- % activity (Galium aparine; solo, 125 gai/ha, 20 DAT): 0%
- % activity (Galium aparine; solo, 250 gai/ha, 20 DAT): 30%
- % activity, solo application (Lolium multiflorum; 125 gai/ha, 20 DAT, Table X4): 80%
- % activity, solo application (Lolium multiflorum; 125 gai/ha, 20 DAT, Table X5): 80%
- % activity, solo application (Lolium multiflorum; 250 gai/ha, 20 DAT, Table X4): 80%
- % activity (Lolium multiflorum; 21 DAT, solo Ex. 5 125 gai/ha): 85%
- % activity (Lolium multiflorum; 21 DAT, solo Ex. 5 250 gai/ha): 85%
- % activity (Lolium multiflorum; solo Ex. 5 15 gai/ha, 20 DAT, 2nd series of rows): 85%
- % activity (Lolium multiflorum; solo Ex. 5 62.5 gai/ha, 20 DAT): 80%
- % activity (Lolium multiflorum; solo Ex. 5 62.5 gai/ha, 20 DAT, 2nd series of rows): 80%
- % activity (Lolium multiflorum; solo Ex. 5 125 gai/ha, 20 DAT): 80% and 83%
- % activity (Lolium multiflorum; solo Ex. 5 250 gai/ha, 20 DAT): 85%
- % activity (Lolium multiflorum; solo Ex. 5 250 gai/ha, 20 DAT, 2nd series of rows): 85%
- % activity (Lolium multiflorum; solo Ex. 5 250 gai/ha, 21 DAT): 80%
- % activity (Lolium multiflorum; solo Ex. 5 500 gai/ha, 20 DAT): 85%
- % activity (Lolium multiflorum; [3]): 85%
- % activity (Lolium multiflorum; Table X8, 20 DAT, solo Ex. 5 125 gai/ha): 85%
- % activity (Lolium multiflorum; [2]): 85%
- % activity (Lolium multiflorum; solo, 62.5 gai/ha, 20 DAT): 75%
- % activity (Lolium multiflorum; solo, 125 gai/ha, 20 DAT): 80% and 50%
- % activity (Lolium multiflorum; solo, 250 gai/ha, 20 DAT): 80%
- % activity, solo application (Digitaria sanguinalis; 62.5 gai/ha, 20 DAT, Table X3): 30%
- % activity, solo application (Digitaria sanguinalis; 125 gai/ha, 20 DAT, Table X4): 50%
- % activity, solo application (Digitaria sanguinalis; 125 gai/ha, 20 DAT, Table X5): 65%
- % activity, solo application (Digitaria sanguinalis; 250 gai/ha, 20 DAT, Table X4): 70%
- % activity, solo application (Digitaria sanguinalis; 250 gai/ha, 20 DAT, Table X5): 70%
- % activity (Digitaria sanguinalis; 21 DAT, solo Ex. 5 125 gai/ha): 60%
- % activity (Digitaria sanguinalis; 21 DAT, solo Ex. 5 250 gai/ha): 80%
- % activity (Digitaria sanguinalis; solo Ex. 5 62.5 gai/ha, 20 DAT): 35%
- % activity (Digitaria sanguinalis; solo Ex. 5 125 gai/ha, 21 DAT): 45%
- % activity (Digitaria sanguinalis; solo Ex. 5 250 gai/ha, 21 DAT): 65%
- % activity (Digitaria sanguinalis; [3]): 75%
- % activity (Digitaria sanguinalis; Ex. 5 solo, 62.5 gai/ha, 21 DAT): 35%
- % activity (Digitaria sanguinalis; [1]): 65%
- % activity (Digitaria sanguinalis; solo, 62.5 gai/ha, 20 DAT): 35%
- % activity (Digitaria sanguinalis; solo, 125 gai/ha, 20 DAT): 50%
